Experimental data from US6737383B1, “Herbicidal oxadiazolidines” (priority 1999, dated 2004).

What was measured:
bedstraw = assay: Test B pre/postemergence bedstraw; assay type: in vivo, Galium aparine
Summary of the method: (§1)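 Response is a visual 0-to-10 score relative to untreated plants, where 0 means no effect and 10 means complete control, taken twelve to sixteen days after application. Treatments went onto soil at planting and onto foliage of 1- to 4-leaf plants, using a surfactant-containing non-phytotoxic solvent.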

blackgrass = assay: Test B pre/postemergence blackgrass; assay type: in vivo, Alopecurus myosuroides
Summary of the method: as §1

surinam grass = assay: Test B pre/postemergence surinam grass; assay type: in vivo, Brachiaria decumbens
Summary of the method: as §1

cocklebur = assay: Test B pre/postemergence cocklebur; assay type: in vivo, Xanthium strumarium
Summary of the method: as §1

corn = assay: Test B pre/postemergence corn; assay type: in vivo, Zea mays
Summary of the method: as §1

crabgrass = assay: Test B pre/postemergence crabgrass; assay type: in vivo, Digitaria sanguinalis
Summary of the method: as §1

rape = assay: Test B pre/postemergence rape; assay type: in vivo, Brassica napus
Summary of the method: as §1

soybean = assay: Test B pre/postemergence soybean; assay type: in vivo, Glycine max
Summary of the method: as §1

sugar beet = assay: Test B pre/postemergence sugar beet; assay type: in vivo, Beta vulgaris
Summary of the method: as §1

velvetleaf = assay: Test B pre/postemergence velvetleaf; assay type: in vivo, Abutilon theophrasti
Summary of the method: as §1

wheat = assay: Test B pre/postemergence wheat; assay type: in vivo, Triticum aestivum
Summary of the method: as §1

wild oat = assay: Test B pre/postemergence wild oat; assay type: in vivo, Avena fatua
Summary of the method: as §1

purple nutsedge = assay: Test B pre/postemergence purple nutsedge; assay type: in vivo, Cyperus rotundus
Summary of the method: as §1

rice = assay: Test B flood test rice; assay type: in vivo, Oryza sativa
Summary of the method: (§2)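 Plants were grown to the 2-leaf stage before treatment with test chemical, then held in a greenhouse for twelve to sixteen days. Injury was visually rated against untreated controls on a 0–10 scale, where 0 is no effect and 10 is complete control.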

smallflower flatsedge = assay: Test B flood test smallflower flatsedge; assay type: in vivo, Cyperus difformis
Summary of the method: as §2

duck salad = assay: Test B flood test duck salad; assay type: in vivo, Heteranthera limosa
Summary of the method: as §2

bamyardgrass = assay: Test B flood test barnyardgrass; assay type: in vivo, Echinochloa crus-galli
Summary of the method: as §2

[1] = Postemergence, Rate 62 g/ha, scale 0 to 10, 0 is no effect, 10 is complete control
[2] = Postemergence, Rate 250 g/ha, scale 0 to 10, 0 no effect, 10 complete control
[3] = Preemergence, Rate 62 g/ha, scale 0 to 10, 0 is no effect, 10 is complete control
[4] = Preemergence, Rate 125 g/ha, scale 0 to 10 (0 no effect, 10 complete control)
[5] = Preemergence, Rate 250 g/ha, scale of 0 to 10 where 0 is no effect and 10 is complete control
[6] = Preemergence, Rate 500 g/ha, scale 0 (no effect) to 10 (complete control)
[7] = Rate 125 g/ha, Postemergence, scale 0 to 10, 0 no effect, 10 complete control
[8] = Rate 500 g/ha, Postemergence, 0 to 10 scale (0 no effect, 10 complete control)
[9] = Rate 125 g/ha, Postemergence section (flood test species), scale 0 to 10, 0 no effect, 10 complete control
[10] = Rate 500 g/ha, Postemergence section of Table B, 0 to 10 scale (0 no effect, 10 complete control)
[11] = flood test, listed under Postemergence, Rate 250 g/ha, scale 0 to 10, 0 no effect, 10 complete control

Cc1ccccc1-n1c(=O)on(C(=O)N(C2=CCOCC2)C(C)C)c1=O [Compound 10]
1: Plant response rating, Blackgrass (blackgrass; [3]) | Cocklebur plant response rating (cocklebur; [2])
2: Corn plant response rating (corn; [8]) | Plant response rating, Crabgrass (crabgrass; [3])
4: Blackgrass plant response rating (blackgrass; [2]) | Plant response rating, Blackgrass (blackgrass; [4]) | B. signalgrass plant response rating (surinam grass; [2]) | B. signalgrass plant response rating (surinam grass; [8]) | Corn plant response rating (corn; [6])
0: Bedstraw plant response rating (bedstraw; [1]) | Bedstraw plant response rating (bedstraw; [2]) | Plant response rating, Bedstraw (bedstraw; [3]) | Plant response rating, Bedstraw (bedstraw; [4]) | Plant response rating, Bedstraw (bedstraw; [5]) | Bedstraw plant response rating (bedstraw; [6]) | Bedstraw plant response rating (bedstraw; [7]) | Bedstraw plant response rating (bedstraw; [8]) | Blackgrass plant response rating (blackgrass; [1]) | Blackgrass plant response rating (blackgrass; [7]) | B. signalgrass plant response rating (surinam grass; [1]) | Plant response rating, B. signalgrass (surinam grass; [3]) | B. signalgrass plant response rating (surinam grass; [7]) | Cocklebur plant response rating (cocklebur; [1]) | Plant response rating, Cocklebur (cocklebur; [3]) | Plant response rating, Cocklebur (cocklebur; [4]) | Cocklebur plant response rating (cocklebur; [6]) | Cocklebur plant response rating (cocklebur; [7]) | Corn plant response rating (corn; [1]) | Corn plant response rating (corn; [2]) | Plant response rating, Corn (corn; [3]) | Plant response rating, Corn (corn; [4]) | Plant response rating, Corn (corn; [5]) | Corn plant response rating (corn; [7]) | Rape plant response rating (rape; [1]) | Rape plant response rating (rape; [2]) | Plant response rating, Rape (rape; [3]) | Plant response rating, Rape (rape; [4]) | Plant response rating, Rape (rape; [5]) | Rape plant response rating (rape; [6]) | Rape plant response rating (rape; [7]) | Rape plant response rating (rape; [8]) | Plant response rating, Soybean (soybean; [3]) | Plant response rating, Soybean (soybean; [4]) | Plant response rating, Soybean (soybean; [5]) | Soybean plant response rating (soybean; [6]) | Sugarbeets plant response rating (sugar beet; [1]) | Sugarbeets plant response rating (sugar beet; [2]) | Plant response rating, Sugarbeets (sugar beet; [3]) | Plant response rating, Sugarbeets (sugar beet; [4]) | Plant response rating, Sugarbeets (sugar beet; [5]) | Sugarbeets plant response rating (sugar beet; [6]) | Sugarbeets plant response rating (sugar beet; [7]) | Velvetleaf plant response rating (velvetleaf; [1]) | Velvetleaf plant response rating (velvetleaf; [2]) | Plant response rating, Velvetleaf (velvetleaf; [3]) | Plant response rating, Velvetleaf (velvetleaf; [4]) | Plant response rating, Velvetleaf (velvetleaf; [5]) | Velvetleaf plant response rating (velvetleaf; [6]) | Velvetleaf plant response rating (velvetleaf; [7]) | Wheat plant response rating (wheat; [1]) | Wheat plant response rating (wheat; [2]) | Plant response rating, Wheat (wheat; [3]) | Plant response rating, Wheat (wheat; [4]) | Plant response rating, Wheat (wheat; [5]) | Wheat plant response rating (wheat; [6]) | Wheat plant response rating (wheat; [7]) | Wild oats plant response rating (wild oat; [1]) | Wild oats plant response rating (wild oat; [2]) | Plant response rating, Wild oats (wild oat; [4]) | Plant response rating, Wild oats (wild oat; [5]) | Wild oats plant response rating (wild oat; [6]) | Wild oats plant response rating (wild oat; [7]) | Nutsedge plant response rating (purple nutsedge; [1]) | Nutsedge plant response rating (purple nutsedge; [2]) | Plant response rating, Nutsedge (purple nutsedge; [3]) | Plant response rating, Nutsedge (purple nutsedge; [4]) | Plant response rating, Nutsedge (purple nutsedge; [5]) | Nutsedge plant response rating (purple nutsedge; [6]) | Nutsedge plant response rating (purple nutsedge; [7]) | Nutsedge plant response rating (purple nutsedge; [8]) | Rice plant response rating (rice; [1]) | Rice plant response rating (rice; [9]) | Rice plant response rating (rice; [10]) | Rice plant response rating (rice; [11]) | S. Flatsedge plant response rating (smallflower flatsedge; [1]) | S. Flatsedge plant response rating (smallflower flatsedge; [9]) | S. Flatsedge plant response rating (smallflower flatsedge; [11]) | Ducksalad plant response rating (duck salad; [1]) | Ducksalad plant response rating (duck salad; [9]) | Ducksalad plant response rating (duck salad; [10]) | Ducksalad plant response rating (duck salad; [11]) | Barnyardgrass plant response rating (bamyardgrass; [1]) | Barnyardgrass plant response rating (bamyardgrass; [9]) | Barnyardgrass plant response rating (bamyardgrass; [10]) | Barnyardgrass plant response rating (bamyardgrass; [11])
5: Plant response rating, B. signalgrass (surinam grass; [4])
8: Plant response rating, Blackgrass (blackgrass; [5]) | Plant response rating, B. signalgrass (surinam grass; [5]) | B. signalgrass plant response rating (surinam grass; [6])
9: Blackgrass plant response rating (blackgrass; [6]) | Crabgrass plant response rating (crabgrass; [2]) | Crabgrass plant response rating (crabgrass; [8])
3: Cocklebur plant response rating (cocklebur; [8]) | Crabgrass plant response rating (crabgrass; [1]) | Soybean plant response rating (soybean; [1]) | Soybean plant response rating (soybean; [2]) | Soybean plant response rating (soybean; [7])
6: Crabgrass plant response rating (crabgrass; [7])
7: Blackgrass plant response rating (blackgrass; [8]) | Plant response rating, Crabgrass (crabgrass; [4]) | Crabgrass plant response rating (crabgrass; [6])
